This note sets out measurements from PubChem BioAssay (NCI).

Among the test systems are CAKI-1 renal; CCRF-CEM leukemia; HCC-2998 colon; HCT-15 colon; K-562 leukemia; MALME-3M melanoma; MDA-N; NCI-H460 lung; SF-539 CNS; SW-620 colon.
Common to all, as to assay: DTP human tumour cell line panel, 48 h

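Step 1: Grow cells in 96-well plates. Step 2: Expose to compound for 48 hours at 5 concentrations. Step 3: Interpolate endpoints linearly; if unreached, use highest concentration. At the TGI there is no net growth.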

Turning to `CC(C)(C)C1(COC(=O)c2ccc(N)cc2)COC1`, the TGI with CAKI-1 renal, in the test on CCRF-CEM leukemia, in the test with HCC-2998 colon, with HCT-15 colon, with K-562 leukemia and with MALME-3M melanoma was above 100 µM each time. The TGI with MDA-N, with NCI-H460 lung, with SF-539 CNS and in the test with SW-620 colon was above 100 µM each time.
Consider `Cc1cn(CC2=NCC(C)(C)N2)c(=O)[nH]c1=O`, for which the total growth inhibition concentration (TGI) in the test on CCRF-CEM leukemia, in the test with HCC-2998 colon, in the test with HCT-15 colon, with K-562 leukemia, in the test with MALME-3M melanoma and with MDA-N was above 100 µM in each case. For the same molecule, the TGI with NCI-H460 lung and with SW-620 colon was above 100 µM throughout.
On to `CC[C@H](C)[C@H]1NC(=O)[C@@H](NC(=O)[C@@H](CC(C)C)N(C)CC2CCCN2C(=O)C(C)=O)[C@@H](C)OC(=O)[C@H](Cc2ccc(OC)cc2)N(C)C(=O)C2CCCN2C(=O)[C@H](CC(C)C)NC(=O)[C@@H](C)C(=O)[C@H](C(C)C)OC(=O)C[C@@H]1O` (some centres undefined), for which the TGI in the test with CAKI-1 renal came out at 0.338 µM; in the test with CCRF-CEM leukemia, 0.00404 µM; in the test with HCC-2998 colon, 0.00958 µM; in the test on HCT-15 colon, 0.73 µM; with K-562 leukemia, 0.0158 µM; with MALME-3M melanoma, 0.0474 µM. Besides, the TGI with MDA-N amounted to 0.02 µM; in the test on NCI-H460 lung, 0.00812 µM; in the test on SW-620 colon it was 1.8 µM.
Regarding `COc1cc(/C=C2\N=C(c3ccccc3)N(c3nc4c(OC)ccc(OC)c4s3)C2=O)cc(OC)c1OC`, the TGI in the test with CAKI-1 renal, with CCRF-CEM leukemia, in the test on HCC-2998 colon, with HCT-15 colon, in the test with K-562 leukemia and in the test on MALME-3M melanoma was above 100 µM in each case. Also, the TGI with MDA-N, with NCI-H460 lung and with SW-620 colon was above 100 µM in each case.
With `CCCNC(C#N)c1ccc(C(C#N)NCCC)cc1` (centres undefined), the total growth inhibition concentration (TGI) in the test on CAKI-1 renal, in the test on CCRF-CEM leukemia, in the test with HCC-2998 colon, in the test with HCT-15 colon, in the test on K-562 leukemia and in the test on MALME-3M melanoma was above 100 µM throughout. The TGI in the test with MDA-N, with NCI-H460 lung, with SF-539 CNS and with SW-620 colon was above 100 µM each time.
As to `O=C1COc2ccc([N+](=O)[O-])cc2C(=O)C1`, the concentration for total growth inhibition (TGI) with CAKI-1 renal, in the test with CCRF-CEM leukemia, in the test with HCC-2998 colon, in the test with HCT-15 colon, with K-562 leukemia and in the test with MALME-3M melanoma was above 10 µM in each case. Moreover, the TGI in the test on MDA-N, in the test on NCI-H460 lung, with SF-539 CNS and in the test with SW-620 colon was above 10 µM throughout.
For the molecule `COc1cc(CC2c3cc(OC)c(OC)cc3CCN2C)c(Oc2cc3c(cc2OC)-c2c(O)c(OC)cc4c2C(C3)N(C)CC4)cc1OC` (centres undefined), the TGI with CAKI-1 renal is 68.4 µM; in the test on CCRF-CEM leukemia, 42.8 µM; in the test with HCC-2998 colon it was 31 µM; with HCT-15 colon it was 33.1 µM; in the test with K-562 leukemia, above 100 µM; in the test with MALME-3M melanoma, 53.8 µM. The TGI with MDA-N was 36.8 µM; with NCI-H460 lung, 44.8 µM; in the test with SF-539 CNS it was 30.3 µM; with SW-620 colon, above 100 µM.
As for `CCCCCCCCCCCCCCCCCCNc1ccn(C2OC(COP(=O)(O)OCC3OC(n4cc(C)c(=O)[nH]c4=O)CC3N=[N+]=[N-])C(O)C2O)c(=O)n1` (centres undefined), the TGI was found to be 58.6 µM with CAKI-1 renal; 48.7 µM in the test on CCRF-CEM leukemia; 29.9 µM in the test with HCC-2998 colon; 36.1 µM in the test with HCT-15 colon; 50.3 µM in the test with K-562 leukemia; 32.1 µM with MALME-3M melanoma. In addition, the total growth inhibition concentration (TGI) in the test with MDA-N is above 100 µM; in the test with NCI-H460 lung, 36.6 µM; in the test on SF-539 CNS it was 33.8 µM; with SW-620 colon it was 58.8 µM.
For `CC(C)c1ccc(/C=C2\CSCC3=C2NC(=S)NC3c2ccc(C(C)C)cc2)cc1` (centres undefined), the TGI in the test with CAKI-1 renal, in the test with CCRF-CEM leukemia, with HCC-2998 colon, with HCT-15 colon, in the test with K-562 leukemia and with MALME-3M melanoma was above 100 µM throughout. Besides, the TGI in the test on MDA-N, with NCI-H460 lung, in the test with SF-539 CNS and with SW-620 colon was above 100 µM in each case.
Take `CCOC(=O)CNC(=O)C(C)NC(=O)C(NC(=O)CC(c1ncc[nH]1)c1ncc[nH]1)C(C)CC` (centres undefined): the TGI in the test on CAKI-1 renal, in the test with CCRF-CEM leukemia, with HCC-2998 colon, in the test with HCT-15 colon, in the test on K-562 leukemia and in the test with MALME-3M melanoma was above 100 µM throughout. The total growth inhibition concentration (TGI) in the test on MDA-N, in the test on NCI-H460 lung, in the test on SF-539 CNS and in the test on SW-620 colon was above 100 µM throughout.
On to `Cc1cc(-c2nc3ccccc3s2)ccc1NC(=O)[C@H](C)N`, for which the TGI in the test with CAKI-1 renal came out at 24 µM; with CCRF-CEM leukemia it was 24.1 µM; with HCC-2998 colon, 23.9 µM; in the test on HCT-15 colon, 37.1 µM; in the test on K-562 leukemia it was 23.2 µM; with MALME-3M melanoma it was 51.1 µM. Further, the total growth inhibition concentration (TGI) came out at 24.1 µM with MDA-N, 25.6 µM in the test on NCI-H460 lung and 29 µM in the test with SW-620 colon.
As to `CCOc1nc(-c2ccccc2)cc(-c2ccc(N3CCOCC3)cc2)c1C#N`, the TGI in the test with CAKI-1 renal, in the test with CCRF-CEM leukemia, in the test on HCC-2998 colon, with HCT-15 colon, in the test with K-562 leukemia and in the test with MALME-3M melanoma was above 100 µM in each case. Further, the TGI in the test on MDA-N, with NCI-H460 lung, with SF-539 CNS and in the test on SW-620 colon was above 100 µM throughout.
Turning to `O=c1c(C=Nc2ccc([N+](=O)[O-])cc2)c(O)n(-c2ccccc2)c(=O)n1-c1ccccc1`, the total growth inhibition concentration (TGI) in the test with CAKI-1 renal, in the test on CCRF-CEM leukemia, in the test with HCC-2998 colon, with HCT-15 colon, in the test with K-562 leukemia and with MALME-3M melanoma was above 100 µM each time. Besides, the TGI with MDA-N, in the test on NCI-H460 lung and in the test on SW-620 colon was above 100 µM in each case.

One may read the TGI as the concentration at which net growth stops. The low end stands for more potent growth arrest, the high end for less potent growth arrest.
